Source: US9029337B2, “Modulation of factor 7 expression” (Isis Pharmaceuticals, Inc., priority 2007, dated 2015)

Tests used:
Type in all cases: in vivo, mouse
[1] = tested on: platelet factor-4 (PF-4); test: Thrombus formation by real-time RT-PCR quantification of PF-4 in the FeCl3 induced venous thrombosis model; details: Example 16; dose of 1 mg/kg and higher, intraperitoneally daily for 6 days
Protocol: (§1) Three groups of BALB/c mice were injected with 25 mg/kg, 37.5 mg/kg, or 50 mg/kg of ISIS 403102, administered subcutaneously twice a week for 3 weeks. Two control groups of BALB/c mice were treated with PBS, administered subcutaneously twice a week for 3 weeks. Thrombus formation was induced with FeCl3 in half of the mice while the rest of the mice were assayed for tail bleeding. Two days after receiving the last dose of ISIS 403102 or PBS, mice were anesthetized with 150 mg/kg ketamine mixed with 10 mg/kg xylazine administered by intraperitoneal injection. Thrombus formation was induced with FeCl3 in all groups of the VT mice except the first control group.
(§2) In mice undergoing FeCl3 treatment, thrombus formation was induced by applying a piece of filter paper (2×4 mm) pre-saturated with 10% FeCl3 solution directly on the vena cava. After 3 minutes of exposure, the filter paper was removed. Thirty minutes after the filter paper application, a fixed length of the vein containing the thrombus was dissected out for platelet analysis. Liver was collected for RNA analysis.
(§3) Real-time RT-PCR quantification of platelet factor-4 (PF-4) was used to quantify platelets in the vena cava as a measure of thrombus formation. Results are presented as a percentage of PF-4 in ISIS 403102, as compared to the two PBS-treated control groups. […] Therefore, antisense oligonucleotides are useful for inhibiting thrombus and clot formation.
(§4) ISIS 403102 and warfarin (Coumadin®) were evaluated in BALB/c mice. Four groups of BALB/c mice were treated with 5 mg/kg, 10 mg/kg, 20 mg/kg, or 40 mg/kg of ISIS 403102, administered subcutaneously twice a week for 3 weeks. Two days after receiving the last dose of ISIS 403102, mice were anesthetized with 150 mg/kg ketamine mixed with 10 mg/kg xylazine administered by intraperitoneal injection. Six additional groups of BALB/c mice was treated with 0.5 mg/kg, 1 mg/kg, 2 mg·kg, 3 mg/kg, 4 mg/kg, or 5 mg/kg of warfarin, administered intraperioneally daily for 6 days. Four hours after the last dose of warfarin, mice were sacrificed. A control group of BALB/c mice were treated with PBS, administered subcutaneously twice a week for 3 weeks. Two days after the last dose of PBS, mice were anesthetized with 150 mg/kg ketamine mixed with 10 mg/kg xylazine administered by intraperitoneal injection. Thrombus formation was induced with FeCl3 in groups of mice except the first control group.
as §3, with “403102 or warfarin treated mice,” for “403102,”, “Therefore, ISIS” for “Therefore,”

[2] = tested on: BALB/c mice; test: Tail bleeding assay; details: Example 17; for Blood (g), tail bleeding: BALB/c mice, blood collected over 40 minutes
Protocol: (§5) Mice not receiving treatment with FeCl3 solution were evaluated in a tail bleeding chamber. Mice were placed into the bleeding chamber two days after the final treatment of ISIS 403102 or PBS. Mice were anesthetized in the chamber with isofluorane and a small piece of tail (approximately 4 mm from the tip) was cut with sterile scissors. The cut tail was immediately placed in a 15 mL Falcon tube filled with approximately 10 mL of 0.9% NaCl buffer solution warmed to 37° C. The blood was collected over the course of 40 minutes. The saline filled tubes were weighed both before and after bleeding.
Tail-bleeding was measured to observe whether treatment with ISIS 403102 or warfarin causes internal hemorrhage in mice. ISIS 403102 and warfarin (Coumadin®) were evaluated in the tail bleeding assay. Six groups of BALB/c mice were treated with 1.25 mg/kg, 2.5 mg/kg, 5 mg/kg, 10 mg/kg, 20 mg/kg, or 40 mg/kg of ISIS 403102, administered subcutaneously twice a week for 3 weeks. An additional 6 groups of BALB/c mice were treated with 0.5 mg/kg, 1 mg/kg, 2 mg/kg, 3 mg/kg, 4 mg/kg, and 5 mg/kg of warfarin, administered intraperioneally daily for 6 days. A separate control group of BALB/c mice was treated with PBS, administered subcutaneously twice a week for 3 weeks.
as §5, with “Two” for “Mice not receiving treatment with FeCl3 solution were evaluated in a tail bleeding chamber. Mice were placed into the bleeding chamber two”, “403102, warfarin,” for “403102”, “PBS, mice were placed in a tail bleeding chamber.” for “PBS.”
ISIS 403102 and Apixaban were evaluated in BALB/c mice. In a first group of BALB/c mice, 40 mg/kg of ISIS 403102 was administered subcutaneously twice a week for 3 weeks. An additional 3 groups of BALB/c mice were treated with 5 mg/kg and 10 mg/kg of Apixaban, administered in a single intraperitoneal dose, and 10 mg/kg of Apixaban administered as a single subcutaneous dose. A control group of BALB/c mice was treated with PBS, administered subcutaneously twice a week for 3 weeks.
as §5, with “Two” for “Mice not receiving treatment with FeCl3 solution were evaluated in a tail bleeding chamber. Mice were placed into the bleeding chamber two”, “PBS, mice were placed in a tail bleeding chamber. Mice from the groups treated with Apixaban were analyzed 30 minutes after the single dose.” for “PBS.”, “weighed” for “weighed both”

[3] = tested on: murine Factor 7 mRNA; test: Liver Factor 7 mRNA in the FeCl3 induced venous thrombosis model; details: Example 15
Protocol: as §1, §2
RNA was extracted from liver tissue for real-time RT-PCR analysis of Factor 7. Results are presented as percent inhibition of Factor 7, relative to PBS control.
as §4, with “A fifth group” for “Six additional groups”, “with” for “with 0.5 mg/kg, 1 mg/kg, 2 mg·kg,”, “3” for “3 mg/kg, 4 mg/kg, or 5”

`CC(=O)CC(c1ccccc1)c1c(O)c2ccccc2oc1=O` (stereo not shown) [warfarin] was tested, and the “PF-4 in comparison to the PBS control” value [1] was “reduction of PF-4”, the “bleeding as compared to PBS control mice” value ([2]; 0.5-5 mg/kg intraperitoneally daily for 6 days) was “did increase bleeding” and the “Blood (g), tail bleeding” value ([2]; 0.5 mg/kg i.p. daily for 6 days) was 0.16 g. The “Blood (g), tail bleeding” value ([2]; 1 mg/kg i.p. daily for 6 days) was 0.28 g, the “Blood (g), tail bleeding” value ([2]; 2 mg/kg i.p. daily for 6 days) was 0.58 g and the “Blood (g), tail bleeding” value ([2]; 3 mg/kg i.p. daily for 6 days) was 0.78 g. For the same molecule, the “Blood (g), tail bleeding” value ([2]; 4 mg/kg i.p. daily for 6 days) was 0.66 g, the “Blood (g), tail bleeding” value ([2]; 5 mg/kg i.p. daily for 6 days) was 0.93 g and the “reduction of Factor 7 mRNA as compared to the PBS control” value ([3]; 3 mg/kg intraperitoneally daily for 6 days) was “did not result in significant reduction of Factor 7”. For the same molecule, the “% inhibition of Factor 7 mRNA, relative to PBS control” value ([3]; BALB/c mice liver, 3 mg/kg i.p. daily for 6 days, four hours after last dose) was 10%.
